Experimental data taken from patent US20260021119A1, “TETRACYCLINE DERIVATIVES” (ICM (INSTITUT DU CERVEAU ET DE LA MOELLE ÉPINIÈRE), priority 2022, published 2026).

How the values were obtained:
[1] = test system: E. coli ATCC 28922; test: MIC, standardized protocols (Example 9); format: cell-based; conditions: Escherichia coli, ATCC28922
Source text: (§1) Bacterial strains used in this study were: S. aureus (ATCC25923), E. coli (ATCC28922), E. faecalis (ATCC29212) and P. aeruginosa (PA01). The minimum inhibitory concentrations (MICs) were estimated using standardized protocols (Mawabo et al, J. Infect. Public Health 2015).

[2] = test system: E. faecalis ATCC 29212; test: MIC, standardized protocols (Example 9); format: cell-based; conditions: Enterococcus faecalis, ATCC29212
Source text: as §1

[3] = test system: P. aeruginosa PA01; test: MIC, standardized protocols (Example 9); format: cell-based; conditions: Pseudomonas aeruginosa
Source text: as §1

[4] = test system: S. aureus ATCC 25923; test: MIC, standardized protocols (Example 9); format: cell-based; conditions: Staphylococcus aureus, ATCC25923
Source text: as §1

[5] = test system: 4 test bacterial strains; test: Antimicrobial effects, summary over the 4 test bacterial strains (Example 9); format: cell-based
Source text: as §1

[6] = test system: dopamine neurons; test: Neuroprotection in midbrain mouse cultures, survival of TH+ dopamine neurons; format: cell-based; conditions: 0.5 μM, 1 μM and 5 μM, div14
Description: (§2) Midbrain mouse cultures were subjected to a maturation step until day in vitro (div) 7, and then gradually exposed to phenol red formulated DMEM/Nutrient mixture F12 Ham supplemented with 20 μg/mL of insulin and 2 μM of the NMDA receptor blocker MK-801. Under these conditions, which favor low-level, sustained oxidative insults, and lead ultimately to dopamine cell death, treatments with the compound of formula (Ib) according to the invention (at a concentration ranging from 0.1 to 5 μM) were performed or not, as well as treatments with the reference tetracycline antibiotic doxycycline (DOX; 10 μM) and the glycoprotein apotransferrin (APO; 100 μg/mL), the latter being used as reference neuroprotectant. At div14, cultures were fixed, and then processed for tyrosine hydroxylase (TH) immunocytochemistry to estimate the survival of dopamine neurons.
as §2, with “(Ic)” for “(Ib)”, “with” for “with the reference tetracycline antibiotic doxycycline (DOX; 10 μM) and”

[7] = test system: primary mouse microglial cells (TNF-a release, LPS 10 ng/ml); test: Anti-inflammatory effect in LPS-activated primary mouse microglial cells, TNF-a ELISA; format: cell-based
Description: Primary mouse microglial cells cultivated in Dulbecco's Modified Eagle Medium (DMEM) with no serum and 15 mM Hepes were challenged with lipopolysaccharide (LPS, 10 ng/ml) for 24 hours in the presence or not of the compound of formula (Ib) according to the present invention at concentrations of 1 μM, 5 μM, 25 μM and 50 μM. After that, the release of the proinflammatory cytokine TNF-a was estimated with an ELISA kit (ThermoFisher Scientific).

[8] = test system: p-tau (phosphorylated tau protein at Ser202, Thr205 residues); test: p-tau (AT8) expression in cultured cortical neurons under oxidative stress; format: cell-based, mouse; parameters: key to Reduction of the % of p-tau+ somas: a favorable response, synonymous with a decrease in the number of p-tau+ cell bodies; ++: a favorable response, synonymous with a decrease in the number of p-tau+ cell bodies; +++=reference level; an unfavorable response is represented by a sign “−”, synonymous with an elevation of the number of p-tau+ cell bodies; overexpression of p-tau in cortical cell bodies: dose or concentration left out as unconfirmed
Description: A culture model of cortical neurons from mouse embryonic brain was used, in which neuronal cells were subjected to a maturation step until day in vitro (div) 7, before being gradually exposed to phenol red formulated DMEM/Nutrient mixture F12 Ham supplemented with 20 μg/mL of insulin, and 2 μM of the NMDA receptor blocker MK-801 (DF12i).
Precisely, after 4 days of exposure to DF12i, between 10-15% of surviving neurons show a very strong AT8 immunosignal in their somas while only 1 to 1.5% of neuronal cell bodies are found immunopositive under conditions where oxidative stress is repressed by treatment with bovine apotransferrin (APO; 100 µg/mL, Sigma Aldrich), a glycoprotein with iron chelating properties. Likewise, overexpression of p-tau in cortical cell bodies is reduced by the two non-antibiotic tetracyclines compound of formula (C) ([…]) and compound of formula (Ib) ([…]): see the following Table: […]

[9] = test system: bacteria; test: Antimicrobial effect against bacteria (Example 13, no method given); format: cell-based

SMILES: C[C@@]1(O)c2cccc(O)c2C(=O)C2=C(O)C3C(=O)C(C(N)=O)=C(O)C[C@@H]3[C@@H](O)[C@@H]21 (stereo partly drawn) [Compound of formula (Ib), (4aS,5R,5aR,6S)-3,5,6,10,12-pentahydroxy-6-methyl-1,11-dioxo-1,4,4a,5,5a,6,11,12a-octahydrotetracene-2-carboxamide]
- MIC [1]: > 200 µM
- MIC [2]: 100 µM
- MIC [3]: > 200 µM
- MIC [4]: 100 µM
- antimicrobial effects against the 4 test bacterial strains [5]: effective against none of them
- neuroprotective effect (survival of dopamine neurons) [6]: highly protective
- reduction of proinflammatory effects of LPS (TNF-a release) ([7]; between 5 μM to 50 μM, LPS 10 ng/ml, 24 hours): reduces significantly
- overexpression of p-tau in cortical cell bodies [8]: reduced
- Reduction of the % of p-tau+ somas ([8]; compounds 3 μM, APO 100 μg/mL, mouse cortical cultures exposed div 7-11 to DF12i): +++

SMILES: C[C@@]1(O)c2cccc(O)c2C(=O)C2=C(O)C3C(=O)C(C(N)=O)=C(O)CC3CC21 (stereo partly drawn) [Compound of formula (Ic)]
- neuroprotective effect (survival of dopamine neurons) [6]: highly protective
- anti-inflammatory effects vis-à-vis 10 ng/mL LPS ([7]; 5 μM, 25 μM and 50 μM): has anti-inflammatory effects
- antimicrobial effect against bacteria [9]: does not show any antimicrobial effect
